From paper PMC4979471 (Cell Death Discovery, 2015)
Like-named read-outs stand apart in the source and are kept apart here.

Experiments:
Test in all cases: Kinase selectivity, P33-radiolabeled assay
Format in all cases: biochemical
RIPK5 = target: T1, RIPK5 (Homo sapiens, UniProt Q6XUX3); conditions: 10 μM ATP
T1 construct: purchased Reaction Biology Corp
T1 sequence (Q6XUX3 1-929): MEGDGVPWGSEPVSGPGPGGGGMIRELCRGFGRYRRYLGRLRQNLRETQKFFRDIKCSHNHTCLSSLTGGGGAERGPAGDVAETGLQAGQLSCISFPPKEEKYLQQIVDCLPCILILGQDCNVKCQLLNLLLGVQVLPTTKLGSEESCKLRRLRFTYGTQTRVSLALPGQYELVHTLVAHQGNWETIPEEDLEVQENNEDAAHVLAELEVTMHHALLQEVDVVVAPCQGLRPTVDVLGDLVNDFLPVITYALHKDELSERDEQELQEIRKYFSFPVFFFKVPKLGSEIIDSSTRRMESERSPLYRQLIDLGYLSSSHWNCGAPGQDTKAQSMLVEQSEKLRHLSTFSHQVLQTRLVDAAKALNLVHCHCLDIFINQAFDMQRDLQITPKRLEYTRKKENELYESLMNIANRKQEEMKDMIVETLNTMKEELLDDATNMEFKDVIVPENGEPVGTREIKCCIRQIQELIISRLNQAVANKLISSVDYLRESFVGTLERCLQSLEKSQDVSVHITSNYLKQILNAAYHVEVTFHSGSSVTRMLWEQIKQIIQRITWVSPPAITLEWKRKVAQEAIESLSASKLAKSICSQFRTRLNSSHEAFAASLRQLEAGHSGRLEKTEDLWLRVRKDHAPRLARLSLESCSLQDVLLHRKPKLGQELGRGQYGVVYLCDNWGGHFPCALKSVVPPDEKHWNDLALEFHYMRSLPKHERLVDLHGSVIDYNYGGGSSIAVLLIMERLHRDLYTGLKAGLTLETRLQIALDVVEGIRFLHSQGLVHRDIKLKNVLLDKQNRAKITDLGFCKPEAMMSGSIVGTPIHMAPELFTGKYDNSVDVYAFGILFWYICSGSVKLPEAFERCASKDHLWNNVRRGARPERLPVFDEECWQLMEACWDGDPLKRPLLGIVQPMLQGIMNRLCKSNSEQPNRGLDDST
Experimental: (§1) The compound was tested at a single dose in duplicate at 10 μM. Reactions were carried out at 10 μM ATP. Data are reported as % enzyme activity (relative to DMSO controls). The full data set is shown in the Supplementary Table I.

AKT1 = target: T2, AKT1 (Homo sapiens, UniProt P31749); conditions: 10 μM ATP
T2 construct: purchased Reaction Biology Corp
Experimental: as §1

Aurora A = target: T3, Aurora A (Homo sapiens, UniProt O14965); conditions: 10 μM ATP
T3 construct: purchased Reaction Biology Corp
T3 sequence (O14965 1-403): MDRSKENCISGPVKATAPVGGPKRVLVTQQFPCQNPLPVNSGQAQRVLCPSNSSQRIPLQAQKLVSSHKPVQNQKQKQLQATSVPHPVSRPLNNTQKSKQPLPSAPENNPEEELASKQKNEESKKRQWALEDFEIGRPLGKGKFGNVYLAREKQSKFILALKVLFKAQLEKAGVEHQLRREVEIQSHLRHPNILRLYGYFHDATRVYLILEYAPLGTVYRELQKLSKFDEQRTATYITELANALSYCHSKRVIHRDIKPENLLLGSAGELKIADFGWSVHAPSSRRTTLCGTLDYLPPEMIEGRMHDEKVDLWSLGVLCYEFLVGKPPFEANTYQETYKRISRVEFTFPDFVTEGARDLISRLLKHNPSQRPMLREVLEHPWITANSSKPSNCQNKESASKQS
Experimental: as §1

EPHA1 = target: T4, EPHA1 (Homo sapiens, UniProt P21709); conditions: 10 μM ATP
T4 construct: purchased Reaction Biology Corp
T4 sequence (P21709 26-976): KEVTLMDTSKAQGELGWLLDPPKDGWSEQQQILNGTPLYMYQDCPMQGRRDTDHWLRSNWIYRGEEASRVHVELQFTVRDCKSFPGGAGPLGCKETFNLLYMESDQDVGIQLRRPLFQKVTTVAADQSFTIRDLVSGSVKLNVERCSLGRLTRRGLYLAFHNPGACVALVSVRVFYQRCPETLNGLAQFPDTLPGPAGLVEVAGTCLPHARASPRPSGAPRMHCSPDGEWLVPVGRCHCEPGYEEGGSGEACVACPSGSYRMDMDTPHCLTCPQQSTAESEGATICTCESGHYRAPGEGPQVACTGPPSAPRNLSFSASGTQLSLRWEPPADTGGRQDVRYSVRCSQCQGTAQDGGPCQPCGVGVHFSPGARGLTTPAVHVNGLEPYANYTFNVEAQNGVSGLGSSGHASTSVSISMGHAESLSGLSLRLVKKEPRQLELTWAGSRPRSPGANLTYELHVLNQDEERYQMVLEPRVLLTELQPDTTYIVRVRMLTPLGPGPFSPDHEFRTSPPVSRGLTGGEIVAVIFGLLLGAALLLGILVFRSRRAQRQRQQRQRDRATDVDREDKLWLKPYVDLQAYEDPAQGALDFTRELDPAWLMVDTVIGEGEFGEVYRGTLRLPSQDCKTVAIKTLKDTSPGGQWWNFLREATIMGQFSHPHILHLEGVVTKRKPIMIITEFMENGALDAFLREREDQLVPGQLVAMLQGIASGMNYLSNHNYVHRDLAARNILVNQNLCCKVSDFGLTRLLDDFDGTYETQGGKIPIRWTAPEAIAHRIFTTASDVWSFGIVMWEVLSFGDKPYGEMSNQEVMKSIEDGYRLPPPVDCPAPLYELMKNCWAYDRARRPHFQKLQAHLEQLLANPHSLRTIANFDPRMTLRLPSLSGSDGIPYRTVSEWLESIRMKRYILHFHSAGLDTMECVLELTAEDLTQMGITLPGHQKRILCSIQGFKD
Experimental: as §1

STK33 = target: T5, STK33 (Homo sapiens, UniProt Q9BYT3); conditions: 10 μM ATP
T5 construct: purchased Reaction Biology Corp
Experimental: as §1

Aurora B = target: T6, Aurora B (Homo sapiens, UniProt Q96GD4)
T6 construct: purchased Reaction Biology Corp
Experimental: as §1

NEK4 = target: T7, NEK4 (Homo sapiens, UniProt P51957); conditions: 10 μM ATP
T7 construct: purchased Reaction Biology Corp
Experimental: as §1

ROCK1 = target: T8, ROCK1 (Homo sapiens, UniProt Q13464); conditions: 10 μM ATP
T8 construct: purchased Reaction Biology Corp
Experimental: as §1

[1] = read-out: % Enzyme Activity (relative to DMSO controls) AVG
[2] = read-out: % Enzyme Activity (relative to DMSO controls) Data 1
[3] = read-out: % Enzyme Activity (relative to DMSO controls) Data 2

T2 sequence (P31749 whole entry): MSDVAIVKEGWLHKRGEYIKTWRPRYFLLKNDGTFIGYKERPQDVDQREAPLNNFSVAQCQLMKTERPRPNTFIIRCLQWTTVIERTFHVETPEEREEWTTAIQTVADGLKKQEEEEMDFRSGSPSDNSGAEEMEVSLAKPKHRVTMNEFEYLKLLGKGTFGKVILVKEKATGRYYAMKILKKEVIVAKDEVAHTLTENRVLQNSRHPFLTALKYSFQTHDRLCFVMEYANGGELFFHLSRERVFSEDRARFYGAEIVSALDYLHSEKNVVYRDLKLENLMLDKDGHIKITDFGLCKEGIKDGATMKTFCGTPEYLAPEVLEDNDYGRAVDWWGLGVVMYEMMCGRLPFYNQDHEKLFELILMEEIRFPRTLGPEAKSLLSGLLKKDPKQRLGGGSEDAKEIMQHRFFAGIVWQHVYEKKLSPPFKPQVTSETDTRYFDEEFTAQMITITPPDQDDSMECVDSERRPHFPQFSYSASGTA
T6 sequence (Q96GD4 whole entry): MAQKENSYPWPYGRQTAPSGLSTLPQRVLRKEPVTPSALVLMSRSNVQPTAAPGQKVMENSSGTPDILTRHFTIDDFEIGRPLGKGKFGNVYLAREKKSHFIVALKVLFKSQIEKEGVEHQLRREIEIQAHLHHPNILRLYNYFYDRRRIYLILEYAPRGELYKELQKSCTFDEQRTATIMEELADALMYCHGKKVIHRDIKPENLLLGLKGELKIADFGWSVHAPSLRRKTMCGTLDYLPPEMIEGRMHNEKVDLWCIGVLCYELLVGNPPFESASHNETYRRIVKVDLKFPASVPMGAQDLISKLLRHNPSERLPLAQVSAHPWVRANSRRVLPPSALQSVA
T5 sequence (Q9BYT3 whole entry): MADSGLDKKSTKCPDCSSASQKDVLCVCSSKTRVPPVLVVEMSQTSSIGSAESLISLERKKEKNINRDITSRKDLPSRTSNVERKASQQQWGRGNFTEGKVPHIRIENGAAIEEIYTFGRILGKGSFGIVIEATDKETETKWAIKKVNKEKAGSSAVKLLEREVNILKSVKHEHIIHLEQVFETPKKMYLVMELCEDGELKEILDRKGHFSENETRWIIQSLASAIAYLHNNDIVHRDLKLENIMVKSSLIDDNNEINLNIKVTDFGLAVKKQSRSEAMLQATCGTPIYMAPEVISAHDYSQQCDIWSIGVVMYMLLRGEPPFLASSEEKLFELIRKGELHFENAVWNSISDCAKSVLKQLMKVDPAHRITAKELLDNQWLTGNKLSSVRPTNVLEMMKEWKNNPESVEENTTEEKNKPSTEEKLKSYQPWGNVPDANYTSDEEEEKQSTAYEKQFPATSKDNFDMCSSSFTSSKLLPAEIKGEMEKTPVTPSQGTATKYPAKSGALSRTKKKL
T7 sequence (P51957 whole entry): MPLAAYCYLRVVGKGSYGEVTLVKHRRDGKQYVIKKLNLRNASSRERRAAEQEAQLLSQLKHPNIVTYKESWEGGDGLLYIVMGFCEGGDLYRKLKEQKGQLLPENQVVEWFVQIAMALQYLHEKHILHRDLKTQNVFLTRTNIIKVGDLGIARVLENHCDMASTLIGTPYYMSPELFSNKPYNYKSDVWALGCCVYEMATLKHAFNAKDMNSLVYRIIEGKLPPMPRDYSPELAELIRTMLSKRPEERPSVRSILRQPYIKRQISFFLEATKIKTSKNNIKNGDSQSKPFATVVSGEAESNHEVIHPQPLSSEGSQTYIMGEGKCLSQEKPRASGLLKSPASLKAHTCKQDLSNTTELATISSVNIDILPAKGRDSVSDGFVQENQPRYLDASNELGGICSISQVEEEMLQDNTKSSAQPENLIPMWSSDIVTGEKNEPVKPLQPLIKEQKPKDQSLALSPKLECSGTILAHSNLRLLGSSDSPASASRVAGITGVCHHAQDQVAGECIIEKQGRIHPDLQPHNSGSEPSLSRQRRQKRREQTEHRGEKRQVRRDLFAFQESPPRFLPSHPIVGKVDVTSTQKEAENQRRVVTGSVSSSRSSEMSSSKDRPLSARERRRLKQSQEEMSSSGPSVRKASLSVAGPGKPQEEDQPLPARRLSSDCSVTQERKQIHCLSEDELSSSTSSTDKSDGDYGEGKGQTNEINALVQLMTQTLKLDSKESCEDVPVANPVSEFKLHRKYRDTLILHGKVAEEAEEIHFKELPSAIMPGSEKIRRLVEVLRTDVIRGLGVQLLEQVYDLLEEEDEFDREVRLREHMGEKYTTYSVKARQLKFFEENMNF
T8 sequence (Q13464 whole entry): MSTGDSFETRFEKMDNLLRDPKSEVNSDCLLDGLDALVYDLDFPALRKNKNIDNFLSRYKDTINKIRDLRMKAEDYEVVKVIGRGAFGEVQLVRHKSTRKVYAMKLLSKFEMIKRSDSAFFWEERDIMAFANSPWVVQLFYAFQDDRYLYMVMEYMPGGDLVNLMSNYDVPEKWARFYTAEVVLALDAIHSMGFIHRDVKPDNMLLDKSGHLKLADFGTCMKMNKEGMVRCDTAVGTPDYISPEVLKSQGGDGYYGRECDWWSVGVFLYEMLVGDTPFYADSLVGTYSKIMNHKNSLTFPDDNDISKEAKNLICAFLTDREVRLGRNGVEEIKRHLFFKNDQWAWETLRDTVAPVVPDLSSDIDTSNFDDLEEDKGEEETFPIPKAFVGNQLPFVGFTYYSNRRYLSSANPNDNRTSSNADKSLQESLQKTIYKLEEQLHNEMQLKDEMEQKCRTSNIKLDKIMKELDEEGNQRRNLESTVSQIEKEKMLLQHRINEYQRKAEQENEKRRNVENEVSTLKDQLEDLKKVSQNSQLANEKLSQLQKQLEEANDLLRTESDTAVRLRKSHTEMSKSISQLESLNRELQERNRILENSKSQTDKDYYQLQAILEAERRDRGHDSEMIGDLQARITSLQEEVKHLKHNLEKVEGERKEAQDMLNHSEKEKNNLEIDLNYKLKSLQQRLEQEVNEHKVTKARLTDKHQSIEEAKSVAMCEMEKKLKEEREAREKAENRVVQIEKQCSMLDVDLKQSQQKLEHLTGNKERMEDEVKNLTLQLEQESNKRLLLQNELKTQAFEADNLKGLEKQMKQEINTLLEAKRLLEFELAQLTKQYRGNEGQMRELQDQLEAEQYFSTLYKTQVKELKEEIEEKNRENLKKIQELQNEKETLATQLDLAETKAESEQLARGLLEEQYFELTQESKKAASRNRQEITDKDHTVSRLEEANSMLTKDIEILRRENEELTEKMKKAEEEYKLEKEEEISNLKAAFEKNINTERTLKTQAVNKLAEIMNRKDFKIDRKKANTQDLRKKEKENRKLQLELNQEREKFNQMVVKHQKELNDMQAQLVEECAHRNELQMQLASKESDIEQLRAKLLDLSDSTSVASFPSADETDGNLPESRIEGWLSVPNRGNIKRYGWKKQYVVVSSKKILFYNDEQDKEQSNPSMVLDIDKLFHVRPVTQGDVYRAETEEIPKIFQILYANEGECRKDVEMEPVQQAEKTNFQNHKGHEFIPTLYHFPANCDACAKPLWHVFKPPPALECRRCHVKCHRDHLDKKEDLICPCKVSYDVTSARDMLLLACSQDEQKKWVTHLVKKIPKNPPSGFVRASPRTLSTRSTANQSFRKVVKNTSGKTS

CC(C)(C)C(=O)N1N=CC[C@H]1c1ccccc1 [GSK′963]
remaining activity at 10 µM (RIPK5; [1]): 101%
remaining activity at 10 µM (RIPK5; [2]): 102%
remaining activity at 10 µM (RIPK5; [3]): 99.6%
remaining activity at 10 µM (AKT1; [1]): 100%
remaining activity at 10 µM (AKT1; [2]): 102%
remaining activity at 10 µM (AKT1; [3]): 98.8%
remaining activity at 10 µM (Aurora A; [1]): 102%
remaining activity at 10 µM (Aurora A; [2]): 101%
remaining activity at 10 µM (Aurora A; [3]): 102%
remaining activity at 10 µM (EPHA1; [1]): 106%
remaining activity at 10 µM (EPHA1; [2]): 107%
remaining activity at 10 µM (EPHA1; [3]): 106%
remaining activity at 10 µM (STK33; [1]): 103%
remaining activity at 10 µM (STK33; [2]): 104%
remaining activity at 10 µM (STK33; [3]): 102%
remaining activity at 10 µM (Aurora B; 10 uM, 10 μM ATP, read-out: % Enzyme Activity (relative to DMSO controls) Data 1): 104%
remaining activity at 10 µM (Aurora B; 10 uM, 10 μM ATP, read-out: % Enzyme Activity (relative to DMSO controls) Data 2): 98.7%
remaining activity at 10 µM (Aurora B; [1]): 101%
remaining activity at 10 µM (NEK4; [1]): 102%
remaining activity at 10 µM (NEK4; [2]): 102%
remaining activity at 10 µM (NEK4; [3]): 102%
remaining activity at 10 µM (ROCK1; [1]): 105%
remaining activity at 10 µM (ROCK1; [2]): 103%
remaining activity at 10 µM (ROCK1; [3]): 106%
